Results on 2 compounds are retold here after publication PMC9851200, “Multiparameter phenotypic screening for endogenous TFEB and TFE3 translocation identifies novel chemical series modulating lysosome function” (Autophagy, 2022).

Type in all cases: binding
In test [1] the target is kinases (KINOMEscan panel) (Homo sapiens, UniProt P22607, G697C). The note with it: FGFR3(G697C); NEW KINOMEscan.
Test [2] has as its target T1, kinases (KINOMEscan panel) (Homo sapiens, UniProt P25098).
T1 sequence (P25098 1-689): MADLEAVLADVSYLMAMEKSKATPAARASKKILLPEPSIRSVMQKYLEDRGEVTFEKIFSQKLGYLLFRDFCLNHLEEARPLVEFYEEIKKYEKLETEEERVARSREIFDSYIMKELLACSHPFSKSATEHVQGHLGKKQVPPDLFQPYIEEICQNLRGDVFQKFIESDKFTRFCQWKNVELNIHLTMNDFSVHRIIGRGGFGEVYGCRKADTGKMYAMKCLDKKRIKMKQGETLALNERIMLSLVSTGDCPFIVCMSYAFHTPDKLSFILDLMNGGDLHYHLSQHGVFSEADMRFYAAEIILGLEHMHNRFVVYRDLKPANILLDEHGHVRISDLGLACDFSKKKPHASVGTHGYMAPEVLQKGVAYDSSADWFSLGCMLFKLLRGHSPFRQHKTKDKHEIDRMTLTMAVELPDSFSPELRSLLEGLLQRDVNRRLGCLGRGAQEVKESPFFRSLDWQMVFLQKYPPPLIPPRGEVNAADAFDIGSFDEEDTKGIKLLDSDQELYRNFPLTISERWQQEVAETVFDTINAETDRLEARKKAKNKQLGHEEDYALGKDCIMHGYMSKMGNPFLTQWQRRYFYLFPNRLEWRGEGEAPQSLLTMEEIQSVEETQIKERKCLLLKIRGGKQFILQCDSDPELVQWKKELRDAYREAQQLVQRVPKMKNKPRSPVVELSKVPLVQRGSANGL
The note with it: NEW KINOMEscan.

Test [3] deals with kinases (KINOMEscan panel) (Homo sapiens, UniProt Q14680). The note with it: kinase MELK; NEW KINOMEscan.
For test [4], the target named is T2, kinases (KINOMEscan panel) (Homo sapiens, UniProt Q8N568).
T2 sequence (Q8N568 1-766): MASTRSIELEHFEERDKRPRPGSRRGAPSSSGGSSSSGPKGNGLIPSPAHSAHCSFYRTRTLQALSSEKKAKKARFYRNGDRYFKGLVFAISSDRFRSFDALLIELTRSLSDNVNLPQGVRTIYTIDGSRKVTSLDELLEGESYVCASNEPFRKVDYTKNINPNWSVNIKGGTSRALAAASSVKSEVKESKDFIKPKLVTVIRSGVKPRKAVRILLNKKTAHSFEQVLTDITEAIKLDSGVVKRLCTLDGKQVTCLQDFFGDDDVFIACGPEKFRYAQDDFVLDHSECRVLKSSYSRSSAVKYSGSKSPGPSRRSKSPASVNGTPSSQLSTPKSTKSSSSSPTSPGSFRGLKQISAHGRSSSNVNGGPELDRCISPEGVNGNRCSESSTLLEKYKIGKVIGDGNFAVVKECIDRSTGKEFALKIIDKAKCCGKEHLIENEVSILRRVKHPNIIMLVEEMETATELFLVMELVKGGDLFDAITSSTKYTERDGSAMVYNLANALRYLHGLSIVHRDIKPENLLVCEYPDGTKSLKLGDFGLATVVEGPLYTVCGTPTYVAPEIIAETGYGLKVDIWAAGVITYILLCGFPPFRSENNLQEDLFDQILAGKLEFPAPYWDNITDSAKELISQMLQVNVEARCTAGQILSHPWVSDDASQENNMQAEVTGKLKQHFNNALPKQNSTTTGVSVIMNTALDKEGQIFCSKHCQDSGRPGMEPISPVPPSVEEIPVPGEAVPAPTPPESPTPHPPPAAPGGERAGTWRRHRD
To be noted: NEW KINOMEscan.

In test [5] the target is T3, kinases (KINOMEscan panel) (Homo sapiens, UniProt Q9NRM7).
T3 sequence (Q9NRM7 1-1088): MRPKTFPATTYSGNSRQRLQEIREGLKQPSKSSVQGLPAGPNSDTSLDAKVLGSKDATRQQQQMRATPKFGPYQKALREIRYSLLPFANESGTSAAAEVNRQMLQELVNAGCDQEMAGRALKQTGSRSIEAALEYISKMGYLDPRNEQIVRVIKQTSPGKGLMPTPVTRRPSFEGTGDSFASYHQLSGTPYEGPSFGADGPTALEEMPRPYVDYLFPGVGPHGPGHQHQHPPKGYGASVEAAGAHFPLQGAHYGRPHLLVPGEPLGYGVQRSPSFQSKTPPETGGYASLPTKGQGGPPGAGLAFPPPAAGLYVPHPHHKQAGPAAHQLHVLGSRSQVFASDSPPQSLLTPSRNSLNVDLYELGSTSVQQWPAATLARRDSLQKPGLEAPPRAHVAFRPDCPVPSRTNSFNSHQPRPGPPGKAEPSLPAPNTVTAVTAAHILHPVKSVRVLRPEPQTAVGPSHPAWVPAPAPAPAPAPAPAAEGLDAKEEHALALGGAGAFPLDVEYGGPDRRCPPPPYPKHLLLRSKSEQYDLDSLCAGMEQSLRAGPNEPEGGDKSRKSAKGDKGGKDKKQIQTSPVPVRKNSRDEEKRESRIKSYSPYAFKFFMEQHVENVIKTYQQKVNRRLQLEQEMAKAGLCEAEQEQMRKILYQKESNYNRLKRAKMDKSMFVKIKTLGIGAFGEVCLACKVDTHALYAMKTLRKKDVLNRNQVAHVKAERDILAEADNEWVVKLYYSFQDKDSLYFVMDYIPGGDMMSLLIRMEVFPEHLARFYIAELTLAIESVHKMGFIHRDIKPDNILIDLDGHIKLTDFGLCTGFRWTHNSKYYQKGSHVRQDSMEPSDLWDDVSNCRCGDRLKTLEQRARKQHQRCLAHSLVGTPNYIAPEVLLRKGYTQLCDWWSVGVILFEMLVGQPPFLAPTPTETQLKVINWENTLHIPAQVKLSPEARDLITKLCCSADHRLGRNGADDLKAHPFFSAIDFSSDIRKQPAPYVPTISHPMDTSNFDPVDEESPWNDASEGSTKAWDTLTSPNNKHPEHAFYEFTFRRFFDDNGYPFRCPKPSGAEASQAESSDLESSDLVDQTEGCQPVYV
To be noted: NEW KINOMEscan.

Chain of kinases (KINOMEscan panel) (Homo sapiens, UniProt Q14680) (Q14680 whole entry): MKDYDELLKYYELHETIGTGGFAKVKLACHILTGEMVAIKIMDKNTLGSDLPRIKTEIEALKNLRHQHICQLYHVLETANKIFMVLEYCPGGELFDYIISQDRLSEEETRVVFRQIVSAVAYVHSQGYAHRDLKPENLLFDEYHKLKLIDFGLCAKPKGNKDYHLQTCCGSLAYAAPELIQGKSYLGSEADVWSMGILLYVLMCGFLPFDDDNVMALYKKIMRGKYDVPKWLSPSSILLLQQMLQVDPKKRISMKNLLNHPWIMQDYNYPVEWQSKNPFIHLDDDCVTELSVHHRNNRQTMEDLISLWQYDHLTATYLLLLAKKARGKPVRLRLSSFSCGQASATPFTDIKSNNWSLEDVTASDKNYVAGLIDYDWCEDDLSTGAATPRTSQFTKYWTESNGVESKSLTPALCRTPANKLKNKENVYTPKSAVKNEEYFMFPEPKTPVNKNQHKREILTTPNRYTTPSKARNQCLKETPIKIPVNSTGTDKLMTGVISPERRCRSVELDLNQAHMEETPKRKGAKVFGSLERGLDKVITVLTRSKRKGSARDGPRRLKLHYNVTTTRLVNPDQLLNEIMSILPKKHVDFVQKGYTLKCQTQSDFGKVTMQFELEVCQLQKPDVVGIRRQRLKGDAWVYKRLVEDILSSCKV
Chain of kinases (KINOMEscan panel) (Homo sapiens, UniProt P22607, G697C) (P22607 23-806 G697C): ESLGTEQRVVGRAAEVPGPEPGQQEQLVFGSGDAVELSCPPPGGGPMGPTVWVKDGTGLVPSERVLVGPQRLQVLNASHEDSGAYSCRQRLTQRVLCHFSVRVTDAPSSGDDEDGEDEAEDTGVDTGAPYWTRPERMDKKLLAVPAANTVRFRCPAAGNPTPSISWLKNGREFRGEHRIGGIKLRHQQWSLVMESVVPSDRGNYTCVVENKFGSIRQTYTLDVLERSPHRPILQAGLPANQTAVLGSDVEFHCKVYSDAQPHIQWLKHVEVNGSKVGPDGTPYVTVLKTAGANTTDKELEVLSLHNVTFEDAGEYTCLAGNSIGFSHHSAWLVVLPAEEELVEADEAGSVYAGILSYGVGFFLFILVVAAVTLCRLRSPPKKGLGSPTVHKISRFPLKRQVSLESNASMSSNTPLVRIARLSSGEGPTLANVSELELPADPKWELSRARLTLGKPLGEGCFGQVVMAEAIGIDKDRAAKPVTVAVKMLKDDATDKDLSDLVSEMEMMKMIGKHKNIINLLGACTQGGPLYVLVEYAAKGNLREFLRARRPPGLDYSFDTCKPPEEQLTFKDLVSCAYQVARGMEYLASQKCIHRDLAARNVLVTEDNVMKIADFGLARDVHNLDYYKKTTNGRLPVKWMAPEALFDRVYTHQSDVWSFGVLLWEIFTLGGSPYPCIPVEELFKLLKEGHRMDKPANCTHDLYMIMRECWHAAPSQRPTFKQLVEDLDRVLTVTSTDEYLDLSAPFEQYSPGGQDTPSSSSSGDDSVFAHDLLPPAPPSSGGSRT

On to `Cc1cccc(-c2nc(N(C)c3ccc4ncsc4c3)c3ccccc3n2)n1` [NK-161], for which the “KINOMEscan FGFR3(G697C)” value in test [1] was 0. Moreover, the “KINOMEscan GRK2” value in test [2] came to 9. Moreover, the “KINOMEscan MELK” value in test [3] is on record as 2. Further, in test [4], the “KINOMEscan DCLK2” value was determined as 25. Moreover, the “KINOMEscan LATS2” value in test [5] stood at 26.

In the case of `Cc1cccc(-c2nc(Nc3ccc4nn(C)cc4c3)c3ccccc3n2)n1` [NK167], the “KINOMEscan FGFR3(G697C)” value in test [1] is given as 6. Further, in test [2], the “KINOMEscan GRK2” value is 0. The “KINOMEscan MELK” value in test [3] was determined as 0. The “KINOMEscan DCLK2” value in test [4] came out at 11. In addition, the “KINOMEscan LATS2” value in test [5] was found to be 19.
